Assay results published in US9139502B2, “Use of an urushiol compound in preparation of pharmaceutical compositions for inhibiting Smad3 phosphorylation” (Southern Hospital, Southern Medical University, priority 2013, dated 2015).

How the values were obtained:
Smad3 phosphorylation = Smad3 phosphorylation in kidney tissue of UUO rats (immunohistochemistry, Western blot); assay type: in vivo, rat; details: GQ-5 40 mg/kg daily i.p. right after or 7 days after UUO, sacrificed day 14
Experimental: Male Sprague-Dawley rats with body weight 200 to 250 g were randomized into 4 groups (n=6 in each group): (1) sham operated rats; (2) UUO rats; (3) UUO+GQ-5 d1 rats; (4) UUO+GQ-5 d7 rats.
(§1) GQ-5 was dissolved in 5% propylene glycol.
(§2) (3) UUO+GQ-5 d1 rats: daily intraperitoneal injection of GQ-5 (40 mg/kg body weight) right after UUO;
(§3) (4) UUO+GQ-5 d7 rats: daily intraperitoneal injection of GQ-5 (40 mg/kg body weight) 7 days after UUO.
(§4) UUO was performed using an established protocol as described. GQ-5 was dissolved in 5% propylene glycol. Rats were administrated with GQ-5 as described before. All the rats were sacrificed 14 days after UUO. Immunohistochemical staining and Western blot analyses were performed to examine the Smad3 and Smad2 phosphorylation in kidney tissue.

Smad7 = assay: Western blot of Smad7 expression in vitro; assay type: cell-based, rat; details: NRK52E and NRK49F cells, GQ-5 2.5 nM pre-treated 1 h, TGF-β1 10 ng/ml 1 h
Experimental: NRK52E and NRK49F cells were cultured in DMEM-Ham's medium (Gibco, Life Techologies, NY, USA) supplemented with 10% fetal bovine serum (Gibco, Life Techologies, NY, USA). The cells reached at approximately 50% confluence were used for in vitro experiments. Cells were serum-starved for 12 h, and randomized into 4 groups: (1) Controls; (2) GQ-5 only; (3) TGF-β1 only; (4) TGF-β1+GQ-5
(2) GQ-5 only: pre-treated with GQ-5 (2.5 μM) for 1 h, followed with DMEM for 1 h
(3) TGF-β1 only: pre-treated with DMSO (0.1%) for 1 h, followed with TGF-β1 (10 ng/ml) for 1 h
(4) TGF-β1+GQ-5: pre-treated with GQ-5 (2.5 nM) for 1 h, followed with TGF-β1 (10 ng/ml) for 1 h
GQ-5 was dissolved in DMSO. Cells were treated as described. cell lysates were immunoblotted with antibodies against Smad4, Smad7, phospho-p38, p38, phospho-PI3K, PI3K, phosphor-ERK, and ERK.

collagen I [1] = assay: Western blot of TGF-β1-induced collagen I protein in vitro; assay type: cell-based, rat; details: NRK 52E and NRK 49F cells, GQ-5 0.1-2.5 μM pre-treated 1 h, TGF-β1 10 ng/ml 48 h
Experimental: (§5) NRK52E and NRK49F cells were cultured in DMEM-Ham's medium supplemented with 10% fetal bovine serum. The cells reached at approximately 50% confluence were used for in vitro experiments. Cells were serum-starved for 12 h, and randomized into 6 groups: (1) Controls; (2) GQ-5 only; (3) TGF-β1 only; (4) TGF-β1+GQ-5 0.1 μM; (5) TGF-β1+GQ-5 0.5 μM; (6) TGF-β1+GQ-5 2.5 μM
(2) GQ-5 only: pre-treated with GQ-5 (2.5 μM) for 1 h, followed with DMEM for 48 h
(3) TGF-β1 only: pre-treated with DMSO for 1 h, followed with TGF-β1 (10 ng/ml) for 48 h
(4) TGF-β1+GQ-5 0.1 μM: pre-treated with GQ-5 (0.1 μM) for 1 h, followed with TGF-β1 (10 ng/ml) for 48 h
(5) TGF-β1+GQ-5 0.5 μM: pre-treated with GQ-5 (0.5 μM) for 1 h, followed with TGF-β1 (10 ng/ml) for 48 h
(6) TGF-β1+GQ-5 2.5 μM: pre-treated with GQ-5 (2.5 μM) for 1 h, followed with TGF-β1 (10 ng/ml) for 48 h
GQ-5 was dissolved in DMSO. Cells were treated as described. Cells lysates were immunebloted with antibodies against α-SMA, collagen I and fibronectin.

UUO rats = assay: Renal interstitial fibrosis after UUO (HE and Masson trichrome staining); assay type: in vivo, rat; details: GQ-5 40 mg/kg daily i.p. initiating right after or 7 days after operation, sacrificed day 14
Experimental: (§6) Male Sprague-Dawley rats were randomized into 4 groups (n=6 in each group): (1) sham operated rats; (2) UUO rats; (3) UUO+GQ-5 d1 rats; (4) UUO+GQ-5 d7 rats.
as §1, §2, §3
(§7) UUO was performed using an established protocol as described. GQ-5 was dissolved in 5% propylene glycol. Rats were administrated with GQ-5 as described before. All the rats were sacrificed 14 days after UUO. HE staining, Masson trichrome staining were performed to examine the renal tissue injury, and Real-time PCR analyses, immunohistochemical staining, and Western blot analyses were performed to examine α-SMA, collagen I and fibronectin expression in kidney tissue

Smad4 = assay: Western blot of Smad4 expression in UUO kidneys; assay type: in vivo, rat; details: UUO rats, GQ-5 40 mg/kg daily i.p. right after UUO, sacrificed day 14
Experimental: (§8) Male Sprague-Dawley rats with body weight 200 to 250 g were randomized into 3 groups (n=6 in each group): (1) sham operated rats; (2) UUO rats; (3) UUO+GQ-5 rats.
as §1
(§9) (3) UUO+GQ-5 rats: daily intraperitoneal injection of GQ-5 (40 mg/kg body weight) right after UUO;
as §4, with “UUO.” for “UUO. Immunohistochemical staining and”, “Smad4, Smad7 expression” for “Smad3”, “p38, PI3K, ERK phosphorylation.” for “Smad2 phosphorylation in kidney tissue.”

α-SMA = assay: Real-time PCR of TGF-β1-induced α-SMA mRNA in vitro; assay type: cell-based, rat; details: NRK 52E and NRK 49F cells, GQ-5 0.1-2.5 μM pre-treated 1 h, TGF-β1 10 ng/ml 36 h
Experimental: as §5
(2) GQ-5 only: pre-treated with GQ-5 (2.5 μM) for 1 h, followed with DMEM for 36 h
(3) TGF-β1 only: pre-treated with DMSO for 1 h, followed with TGF-β1 (10 ng/ml) for 36 h
(4) TGF-β1+GQ-5 0.1 μM: pre-treated with GQ-5 (0.1 μM) for 1 h, followed with TGF-β1 (10 ng/ml) for 36 h
(5) TGF-β1+GQ-5 0.5 μM: pre-treated with GQ-5 (0.5 μM) for 1 h, followed with TGF-β1 (10 ng/ml) for 36 h
(6) TGF-β1+GQ-5 2.5 μM: pre-treated with GQ-5 (2.5 μM) for 1 h, followed with TGF-β1 (10 ng/ml) for 36 h
GQ-5 was dissolved in DMSO. Cells were treated as described. Cells were collected for mRNA extraction. Real-rime PCR was performed to examine the mRNA expression of α-SMA, collagen I and fibronectin.

collagen I [2] = assay: Collagen I expression in UUO kidney tissue (real-time PCR, immunohistochemistry, Western blot); assay type: in vivo, rat; details: UUO rats, GQ-5 40 mg/kg daily i.p., sacrificed day 14
Experimental: as §6, §1, §2, §3, §7

PI3K = assay: Western blot of PI3K phosphorylation in UUO kidneys; assay type: in vivo, rat; details: UUO rats, GQ-5 40 mg/kg daily i.p. right after UUO, sacrificed day 14
Experimental: as §8, §1, §9
as §4, with “UUO.” for “UUO. Immunohistochemical staining and”, “Smad4, Smad7 expression” for “Smad3”, “p38, PI3K, ERK phosphorylation.” for “Smad2 phosphorylation in kidney tissue.”

With `CCCCCC/C=C\CCCCCCCc1cccc(O)c1O` [GQ-5, 3-[(Z)-pentadec-8-enyl]catechol] the “Smad3 phosphorylation in renal tissue” value (Smad3 phosphorylation) was “significantly inhibited”, the “protein expression of Smad7” value (Smad7) was “did not affect” and the “TGF-β1-induced protein expression of collagen I” value (collagen I [1]) was “significantly inhibited”. For the same molecule, the inflammatory cell infiltration (UUO rats) was “significantly reduced”, the interstitial fibrosis score (UUO rats) was “significantly reduced” and the “expression of Smad4” value (Smad4) was “did not affect”. For the same molecule, the “TGF-β1-induced mRNA expression of α-SMA” value (α-SMA) was “significantly inhibited”, the “up-regulation of collagen I at both mRNA and protein level” value (collagen I [2]) was “significantly inhibited” and the “phosphorylation of PI3K” value (PI3K) was “did not affect”.
